Read-outs that look alike come from different tables or passages of the source.
Target: T1, human α-synuclein (Homo sapiens, UniProt P37840)
T1 construct: the full-length gene for untagged human α-synuclein was inserted; made in house; host or cells: E. coli BL21(DE3), plasmid derived from pT7 or pET11a
Test: Cell-free Thioflavin T assay of α-synuclein aggregation (αSyn ThT Assay)
Assay type: biochemical
Conditions: αSyn 50 μM, compounds at 100 μM
How it was run: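 Inhibition is reported as 100% minus background-corrected ThT signal relative to vehicle wells, taken at 36, 47, 48 or 72 h or the last read. Reactions held 50 μM recombinant α-synuclein, 20-100 μM compound, 20-40 μM ThT and 1% DMSO. Incubation was at 37° C., shaken, with a glass bead.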

[1] = mean % inhibition of αSyn aggregation relative to DMSO control, read-out: αSyn ThT Assay % Inhibition
[2] = class symbol, read-out: αSyn ThT Assay % Inhibition (activity range)

Row | Structure (SMILES) | inhibition at 100 µM [1] [%] | inhibition at 100 µM [2] [%]
1 | CCCCCN1CC(C(=O)O)n2c(c(-c3cccc(C(F)(F)F)c3)c(Cc3cccc4ccccc34)cc2=O)S1(=O)=O (racemic) [Compound 025, 8-(naphthalen-1-ylmethyl)-6-oxo-2-pentyl-9-(3-(trifluoromethyl)phenyl)-3,4-dihydro-2H,6H-pyrido[1,2-e][1,2,5]thiadiazine-4-carboxylic acid 1,1-dioxide] | 59 | 31 to 60
2 | CN1CC(C(=O)O)n2c1c(-c1cccc(C(F)(F)F)c1)c(Cc1cccc3ccccc13)c(Br)c2=O (stereo not drawn) [Compound 119, 6-bromo-1-methyl-7-(naphthalen-1-ylmethyl)-5-oxo-8-(3-(trifluoromethyl)phenyl)-1,2,3,5-tetrahydroimidazo[1,2-a]pyridine-3-carboxylic acid] | 41 | 31 to 60
3 | CC(C)N1CC(C(=O)O)n2c(c(-c3cccc(C(F)(F)F)c3)c(Cc3cccc4ccccc34)c(NC3CCCC3)c2=O)S1(=O)=O (stereo not drawn) [Compound 123, 7-(cyclopentylamino)-2-isopropyl-8-(naphthalen-1-ylmethyl)-6-oxo-9-(3-(trifluoromethyl)phenyl)-3,4-dihydro-2H,6H-pyrido[1,2-e][1,2,5]thiadiazine-4-carboxylic acid 1,1-dioxide] | 76 | > 60
4 | O=C(O)CN1CC(C(=O)O)n2c(c(-c3cccc(C(F)(F)F)c3)c(Cc3cccc4ccccc34)cc2=O)S1(=O)=O (stereo not drawn) [Compound 018, 2-(carboxymethyl)-8-(naphthalen-1-ylmethyl)-6-oxo-9-(3-(trifluoromethyl)phenyl)-3,4-dihydro-2H,6H-pyrido[1,2-e][1,2,5]thiadiazine-4-carboxylic acid 1,1-dioxide] | 22 | 11 to 30
5 | CN1CC(C(=O)O)n2c(c(-c3cccc(C(F)(F)F)c3)c(Cc3cccc4ccccc34)c(N)c2=O)S1(=O)=O (stereo not drawn) [Compound 074, 7-amino-2-methyl-8-(naphthalen-1-ylmethyl)-6-oxo-9-(3-(trifluoromethyl)phenyl)-3,4-dihydro-2H,6H-pyrido[1,2-e][1,2,5]thiadiazine-4-carboxylic acid 1,1-dioxide] | 38 | 31 to 60
6 | CCCN1CC(C(=O)O)n2c(c(-c3cccc(C(F)(F)F)c3)c(Cc3cccc4ccccc34)c(NC3CCOCC3)c2=O)S1(=O)=O (stereo not drawn) [Compound 127, 8-(naphthalen-1-ylmethyl)-6-oxo-2-propyl-7-((tetrahydro-2H-pyran-4-yl)amino)-9-(3-(trifluoromethyl)phenyl)-3,4-dihydro-2H,6H-pyrido[1,2-e][1,2,5] thiadiazine-4-carboxylic acid 1,1-dioxide] | 67 | > 60

— patent US20230131899A1, “INHIBITORS OF MICROBIALLY INDUCED AMYLOID” (Axial Therapeutics, Inc., priority 2020, published 2023)
